2 molecules from US9510570B2, “CD81 and OCLN double transgenic mouse and its construction methods” (WUHAN INSTITUTE OF VIROLOGY, CAS, priority 2013, dated 2016) can be followed below.

The assay has as its system HCV. In words: Pharmacodynamic evaluation of antiviral drug in C/O^Tg mice by acute HCV infection (HCV RNA copies by qRT-PCR). Format: in vivo, C/O^Tg male mice. The settings on record: for viral load in the peripheral blood: started 1 week after HCV injection. As for the experimental part:
Plasmid pJ399EM was transcribed in vitro (Han et al., 2009) to obtain a RNA, and then the RNA was electroporated into Huh7.5.1 cells (Pasteur Institute) for virus production during 96 hours and for collection, followed by ultrafiltration and purification to obtain HCV. The C/O^Tg double transgenic mice or the wile type mice were injected at tail-vein with HCV (TCID50=1×10^8/mL) within 1-2 minutes. The serum or liver tissue of the C/O^Tg double transgenic mice or the wile type mice were collected respectively at indicated time 0 hour to 12 months after infection. HCV RNA level in serum (genomes/mL) and liver (genomes/g) were measured by qRT-PCR. The program was performed as follows: 50° C. for 30 minutes, 95° C. for 10 minutes, followed by 50 cycles at 95° C. for 30 seconds, 58° C. for 30 seconds, and 72° C. for 30 seconds. Primers used for detection were as follows: sense (forward primer): […] (represented by SEQ ID NO. 5); anti-sense (reverse primer): […] (represented by SEQ ID NO. 6). The viral load in serum (genomes/mL) of the wild type mice after injection was: 53746900±747977 (12 hours), 25791242±8626787 (2 days), 7026±2797 (4 days), 433±73 (1 week), and then the viral copies in peripheral blood of wild type mice was undetectable after one week. The viral load in peripheral blood (genomes/mL) of the C/O^Tg double transgenic mice after injection was: 3598678±3016340 (12 hours), 1607875±1304933 (2 days), 228942±174178 (4 days), 64505±6821 (1 week), 67622±4612 (2 weeks), 33671±13347 (3 weeks), 6921±4272 (1 month), 6739±4783 (2 months), 403±95 (3 months), 534±125 (4 months), 1375±198 (6 months), 4781±2969 (10 months), 2067±277 (12 months). […] The viral copies cannot be detectable in liver of the wile type mice after injection. The viral copies in the liver (genomes/g) of the C/O^Tg double transgenic mice after injection was: 149676500±26422459.09 (12 hours), 68863260±26554660 (2 days), 30167166±14023164 (4 days), 48183923±49326087 (1 week), 5221675±782099 (2 weeks), 4723475±570250 (3 weeks), 5649760±3372903 (1 month), 3597135±2671267 (2 months), 1831199±34834 (3 months), 3055570±565440 (4 months), 10729851±3954535 (6 months), 14392085±1902774 (10 months), 15543000±124774 (12 months). […] Meanwhile, the liver tissues were used for pathological analysis (H&E stain, Masson's stain), ultrasound, CT and other non-invasive imaging analysis to assess hepatitis, liver damage (fibrosis and cirrhosis) and other typical HCV pathology caused by HCV infection. The double transgenic mice infected by HCV express mild hepatitis symptoms (most ALT<40). The ALT level of the wild type mice was (U/L): 17.8±11.08 (uninfected), 10.5 0.51 (12 hours), 7.0±1.42 (2 days), 29.5±9.19 (4 days), 6.6±3.54 (1 weeks), 28.2±8.84 (2 weeks), 17.7±13.33 (1 month), 27.9±1.69 (2 months), 26.5±0.70 (3 months), 37.4±12.90 (4 months), 27.3±6.01 (10 months), 16.5±6.29 (12 months). The ALT level of the C/O^Tg double transgenic mice was (U/L): 17.8±11.01 (uninfected), 7.8±6.72 (12 hours), 28.0±1.25 (2 days), 57.3±3.88 (4 days), 16.3±7.72 (1 week), 61.0±5.65 (2 week), 21.2±11.16 (1 month), 19.6±0.68 (2 months), 27.4±10.25 (3 months), 36.3±4.06 (4 months), 35.7±5.44 (6 months), 19.5±3.79 (10 months), 232.3±26.89 (12 months). […] The prealbumin levels of the wild type mice after injection were maintained at normal levels (20˜30 mg/L), but the prealbumin levels of the C/O^Tg double transgenic mice cannot be detectable 4 days after infection. […]
Background: Quantitative PCR measures a nucleic acid by following its amplification.

Take `NC(=O)c1ncn([C@@H]2O[C@H](CO)[C@@H](O)[C@H]2O)n1` [Ribavirin]: the “viral load in the peripheral blood” value reads like this: (Ribavirin 20 mg/kg i.p. daily, treatment for 1 week) “cannot be detected”; (Ribavirin 20 mg/kg i.p. daily, treatment for 4 weeks) “cannot be detected”. In addition, the “viral copies in the liver” value (Ribavirin 20 mg/kg i.p. daily, 1 week after Ribavirin injection) was 260±226 genomes/mg and the “viral copies in the liver” value (Ribavirin 20 mg/kg i.p. daily, 4 weeks after Ribavirin injection) is 894±639 genomes/mg.

Turning to `CCC[C@H](NC(=O)[C@@H]1[C@H]2CCC[C@H]2CN1C(=O)[C@@H](NC(=O)[C@@H](NC(=O)c1cnccn1)C1CCCCC1)C(C)(C)C)C(=O)C(=O)NC1CC1` [Telaprevir], the “viral copies in the liver” value (Telaprevir 200 mg/kg i.p. daily, 1 week after Telaprevir injection) was 273±301 genomes/mg.
